Source: ChEMBL document CHEMBL1201862, “PubChem BioAssay data set” (2004)
One block for each compound: values may come before it. Active and inactive are the calls of the source. Rule as the data show it, for most assays here: actives have a measured IC50 and inactives only a lower limit.

How the values were obtained:
[1] = molecular target: Polyadenylate-binding protein 1 (Homo sapiens, UniProt P11940); assay: PABP inhibition in translation initiation, SAR follow-up (AID 435018); format: functional
Polyadenylate-binding protein 1, sequence (P11940 whole entry): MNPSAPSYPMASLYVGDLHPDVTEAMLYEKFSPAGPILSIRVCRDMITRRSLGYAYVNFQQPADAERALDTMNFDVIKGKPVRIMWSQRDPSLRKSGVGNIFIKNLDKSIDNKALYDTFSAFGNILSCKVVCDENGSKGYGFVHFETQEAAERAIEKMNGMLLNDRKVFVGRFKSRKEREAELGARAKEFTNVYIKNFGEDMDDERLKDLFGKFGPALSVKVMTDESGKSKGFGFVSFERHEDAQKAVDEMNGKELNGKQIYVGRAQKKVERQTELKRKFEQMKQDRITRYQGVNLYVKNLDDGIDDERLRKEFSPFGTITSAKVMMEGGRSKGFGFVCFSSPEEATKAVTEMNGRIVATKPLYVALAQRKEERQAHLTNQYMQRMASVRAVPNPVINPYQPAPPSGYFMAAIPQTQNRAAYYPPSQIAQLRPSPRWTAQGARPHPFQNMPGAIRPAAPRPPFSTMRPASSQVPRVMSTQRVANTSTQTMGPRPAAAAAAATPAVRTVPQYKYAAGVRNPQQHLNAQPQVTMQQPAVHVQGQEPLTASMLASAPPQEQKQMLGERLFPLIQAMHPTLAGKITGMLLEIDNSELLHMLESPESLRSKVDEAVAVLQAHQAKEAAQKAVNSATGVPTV

[2] = molecular target: Eukaryotic translation initiation factor 4H (Homo sapiens, UniProt Q15056); assay: inhibitors of translation initiation factor eIF4H – SAR follow-up (AID 435011); format: functional
[3] = molecular target: Eukaryotic translation initiation factor 4E (Mus musculus, UniProt P63073); assay: blockers of eIF4G binding by eIF4E – biochemical, TR-FRET, dose response (AID 855); format: functional;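 also: potency for disrupting eIF4E binding to eIF4GI seen as loss of FRET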
Eukaryotic translation initiation factor 4E, sequence (P63073 whole entry): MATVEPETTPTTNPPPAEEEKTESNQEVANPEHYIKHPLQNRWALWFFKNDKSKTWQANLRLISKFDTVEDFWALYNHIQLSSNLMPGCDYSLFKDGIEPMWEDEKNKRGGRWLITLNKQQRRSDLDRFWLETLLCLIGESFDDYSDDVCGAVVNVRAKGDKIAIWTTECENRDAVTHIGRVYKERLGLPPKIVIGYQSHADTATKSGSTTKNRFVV

[4] = protection from phage-mediated lysis, alamar blue read-out – E. coli UTI89, K1F phage, bacterial capsule biogenesis inhibitors (AID 488966); format: functional
[5] = molecular target: T1, Mannose-6-phosphate isomerase (Homo sapiens, UniProt P34949); assay: phosphomannose isomerase inhibition – biochemical, fluorescence intensity, confirmation (AID 1535)
T1 sequence (P34949 whole entry): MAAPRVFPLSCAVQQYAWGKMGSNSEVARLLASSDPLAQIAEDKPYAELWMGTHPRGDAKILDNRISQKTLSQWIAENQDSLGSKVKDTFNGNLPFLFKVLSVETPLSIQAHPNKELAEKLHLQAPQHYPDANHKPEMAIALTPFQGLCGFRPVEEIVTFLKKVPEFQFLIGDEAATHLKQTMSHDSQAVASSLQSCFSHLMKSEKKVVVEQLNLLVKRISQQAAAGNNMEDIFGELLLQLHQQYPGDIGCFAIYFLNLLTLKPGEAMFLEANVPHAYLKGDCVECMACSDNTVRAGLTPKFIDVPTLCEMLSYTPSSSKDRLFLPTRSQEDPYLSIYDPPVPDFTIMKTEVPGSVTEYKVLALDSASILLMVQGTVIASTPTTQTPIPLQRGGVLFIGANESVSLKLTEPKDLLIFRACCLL

[6] = molecular target: Alkaline phosphatase, placental type (Homo sapiens, UniProt P05187); assay: human placental alkaline phosphatase inhibition – biochemical, luminescence, confirmation (AID 1512); format: functional
Alkaline phosphatase, placental type, sequence (P05187 whole entry): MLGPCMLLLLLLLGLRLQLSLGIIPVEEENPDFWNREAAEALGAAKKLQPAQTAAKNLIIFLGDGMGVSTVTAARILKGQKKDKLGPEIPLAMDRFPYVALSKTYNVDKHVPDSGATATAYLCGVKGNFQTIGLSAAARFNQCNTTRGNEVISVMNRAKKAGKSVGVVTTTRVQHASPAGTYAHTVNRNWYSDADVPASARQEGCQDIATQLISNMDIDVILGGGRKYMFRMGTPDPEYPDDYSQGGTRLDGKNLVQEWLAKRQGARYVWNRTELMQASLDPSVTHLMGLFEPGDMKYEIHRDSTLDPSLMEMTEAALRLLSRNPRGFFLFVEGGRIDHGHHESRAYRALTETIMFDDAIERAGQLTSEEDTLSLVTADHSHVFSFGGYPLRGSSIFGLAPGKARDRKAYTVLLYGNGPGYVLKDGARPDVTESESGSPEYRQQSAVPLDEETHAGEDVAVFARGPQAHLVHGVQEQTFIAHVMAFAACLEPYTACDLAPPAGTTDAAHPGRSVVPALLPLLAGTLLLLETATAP

[7] = molecular target: T1, Mannose-6-phosphate isomerase; assay: Confirmation of compounds inhibiting phosphomannose isomerase (PMI) via a fluorescence intensity assay using a high concentration of mannose 6-phosphate. [Related pubchem assays (depositor defined):AID1209, AID1220, AID1545, AID1553, AID1620]

Compound: COc1cc(NC(=O)CSc2ccc(-c3ccco3)nn2)cc(OC)c1
IC50 [1]: > 100 µM (inactive)
IC50 [2]: 62.7 µM (active)

IC50 [3]: > 64 µM (inactive)
Compound: CC(=O)Nc1c(-c2ccccc2)nc2ncccn12

Compound: Cc1cc(NCCN)nc2ccccc12
IC50 [4]: > 300 µM (active)

IC50 [5]: > 100 µM (inactive)
IC50 [6]: > 100 µM (inactive)
IC50 [7]: > 100 µM (inactive)
Compound: O=C1N(Cc2ccccc2)c2ccccc2C12NNc1ccccc1O2 (configuration not stated)
